For one experiment, the target named is T1, GPR68/OGR1 (Homo sapiens, UniProt Q15743).
T1 construct: host or cells: Chem-1 (CHEM1-OGR1) cells
The experiment in a line: CHEM1-OGR1 cells Fluo-8 calcium assay, acidified media pH 6.4. It is filed as cell-based. The procedure: Briefly, the methods were: On the day before the assay 20,000 cells per well of CHEM1-OGR1 cells were plated in 10% DMEM containing 10% FBS and 1% Pen/Strep into a 96 well plate. After 24 hours media was removed and cells were stained with 80 μL Fluo-8 calcium indicator dye according to manufacturer's protocol. After staining cells were treated with 20 uL of 4× concentration of test compounds. Using kinetic imaging in the Lionheart HCS fluorescence intensity was continuously measure at 10 frames per second, for 5 seconds before 100 μL of acidified media was added to the well resulting in a pH of 6.4. A ratio of fluorescence intensities prior to addition and at peak were calculated and averaged. The resulting data were platted and using a 4 parameter logistic regression EC50 (the concentration causing 50% effective inhibition) for each test compound was determined.

A further experiment has as its target T2, GRK7 (Homo sapiens, UniProt Q8WTQ7).
T2 construct: purchased DiscoveRx (Fremont, CA)
The experiment in a line: KinomeScan. The experiment is classed as binding. The conditions noted are these: read-out: % Control.

The target of another experiment is T3, NEK11 (Homo sapiens, UniProt Q8NG66).
T3 construct: purchased DiscoveRx
Briefly: KinomeScan. The settings on record: read-out: % Control. The experiment is classed as binding.

Another experiment addresses T4, PIK3CA(M1043I) (Homo sapiens, UniProt P42336, M1043I).
T4 construct: purchased DiscoveRx (Fremont, CA)
Briefly: KinomeScan. It is filed as binding. The conditions noted are these: read-out: % Control.

In another experiment the target is T5, CCK2 (Homo sapiens, UniProt P32239).
T5 construct: host or cells: Chem-1 cells with promiscuous Gα15
Briefly: GPCR Profiler. It is filed as cell-based.

Experiment [1] concerns human pulmonary artery endothelial cells (HPAECs). Briefly: Cyclic stretch-triggered endothelial cell activation. It is filed as cell-based. The conditions noted are these: for Rho activation by 18% cyclic stretch: OGM2 at 5 μM, OGM1 at 3 μM, Rho-GTP pulldown. The procedure:
FIG. 33A through FIG. 33D: Cyclic stretch-triggered endothelial cell (EC) activation is abolished by OGM2 and OGM1. FIG. 33A: In human pulmonary artery endothelial cells (HPAECs), pretreatment with OGMs (OGM2 at 5 μM and OGM1 at 3 μM) abolished Rho activation by 18% cyclic stretch (18% CS), as determined by Rho-GTP pulldown assay. ST, static condition. FIG. 33B: Treatment with OGM2 or OGM1 blocked CS-triggered activation of myosin phosphatase target (MYPT) and myosin light chain (MLC) in ECs, as determined by their phosphorylation MYPT and MLC. FIG. 33C: OGM2 or OGM1 blocked CS-induced TNF-α mRNA expression in ECs. n=3, ^#P<0.05 versus ST, *P<0.05 versus 18% CS. Error bars, standard deviation. FIG. 33D: OGM2 and OGM1 blocked CS-induced VCAM-1 expression in ECs. Here, OGM=OGM2.

The target of a further experiment is GPR68 (Homo sapiens, UniProt Q15743). The experiment in a line: Chem1-OGR1 cells washout (reversibility). The conditions noted are these: for reversibility of GPR68 inhibition: washout. More on the design: host or cells: Chem-1 cells (Chem1-OGR1). It is filed as cell-based. The procedure: Chem1-GPR68 reporter cells were treated with 20 uM OM8345 for 2 hours and then rinsed with HBSS. […] The GPR68 inhibitory activity of OGM analogs segregated with the ability of the molecule to induce the phenotype in zebrafish.
Additional experiments, whereby OGM2 was resynthesized and used (due to its submicromolar potency and GPR68 specificity) were performed. See FIG. 6A (HNMR of resynthesis of OGM2) and FIG. 6B (LCMS of resynthesis of OGM2). To test the possibility of OGM2 being an irreversible inhibitor, Chem1-OGR1 cells (Millipore™) were incubated with 10 μM OGM2 for 4 hours, and after removing the compound stimulated with pH 6.4 medium. […] Time till 50% max ˜52 minutes. The signal returned back towards baseline uninhibited levels in a rapid and time-dependent manner.

Experiment [2] concerns patient derived GBM lines. The experiment in a line: qPCR of ferroptosis markers. The experiment is classed as cell-based, human. The settings on record: 3 days. The source says:
cDNAs were generated using High-Capacity cDNA Reverse Transcription Kit with RNase Inhibitor (ThermoFisher, […]). Samples were run on a Quant Studio 5 real-time PCR system (Applied Biosystems™) with TaqMan™ Universal Master Mix II, with UNG (ThermoFisher, 4440042). Primers used were GAPDH: Hs02786624g1, GPR68: Hs00268858s1, ATF4: Hs00909569_g1, CHAC1: Hs00225520_m1, SLC7A11: Hs00921938_m1, HMOX1: Hs01110250_m1, TFRC: Hs00951083_m1.
Separate biological replicates of pdx and neurosphere cells treated with OGM for 3 days were generated. RNA was isolated, cDNA generated and qPCR was conducted on select key markers of ferroptosis (ATF4. CHAC1, HMOX1, TFRC, and SLC7A11) that were seen as dysregulated in RNAseq.
Background: In qPCR the cycle at which signal appears reflects the starting amount.

The mark [3] stands for this setting: concentration causing 50% effective inhibition of calcium response to pH 6.4, read-out: EC50.

The structures appear in SMILES notation. Like-named read-outs stand apart in the source and are kept apart here.

T1 sequence (Q15743 whole entry): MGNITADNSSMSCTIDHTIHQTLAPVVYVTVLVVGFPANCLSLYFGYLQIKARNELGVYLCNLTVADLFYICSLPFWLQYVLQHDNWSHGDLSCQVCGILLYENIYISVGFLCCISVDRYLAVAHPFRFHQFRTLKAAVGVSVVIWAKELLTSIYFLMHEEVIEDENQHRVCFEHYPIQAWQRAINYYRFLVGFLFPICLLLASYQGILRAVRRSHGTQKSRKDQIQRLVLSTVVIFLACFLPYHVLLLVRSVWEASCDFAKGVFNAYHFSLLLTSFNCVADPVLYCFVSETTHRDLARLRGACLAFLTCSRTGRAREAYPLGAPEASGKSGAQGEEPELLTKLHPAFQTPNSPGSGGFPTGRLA
Chain of GPR68 (Q15743 whole entry): as above
T5 sequence (P32239 whole entry): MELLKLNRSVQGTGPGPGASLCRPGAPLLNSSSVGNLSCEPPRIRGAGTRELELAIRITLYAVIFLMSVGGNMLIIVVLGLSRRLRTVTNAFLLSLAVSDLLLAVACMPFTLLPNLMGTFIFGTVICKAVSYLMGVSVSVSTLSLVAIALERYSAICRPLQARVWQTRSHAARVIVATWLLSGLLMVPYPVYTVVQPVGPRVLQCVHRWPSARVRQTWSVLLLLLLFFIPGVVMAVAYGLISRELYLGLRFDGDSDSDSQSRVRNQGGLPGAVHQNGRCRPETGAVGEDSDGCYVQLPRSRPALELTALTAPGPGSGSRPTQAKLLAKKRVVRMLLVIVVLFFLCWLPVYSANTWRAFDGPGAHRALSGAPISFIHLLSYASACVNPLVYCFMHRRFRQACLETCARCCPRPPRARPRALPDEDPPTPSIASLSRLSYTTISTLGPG
T3 sequence (Q8NG66 whole entry): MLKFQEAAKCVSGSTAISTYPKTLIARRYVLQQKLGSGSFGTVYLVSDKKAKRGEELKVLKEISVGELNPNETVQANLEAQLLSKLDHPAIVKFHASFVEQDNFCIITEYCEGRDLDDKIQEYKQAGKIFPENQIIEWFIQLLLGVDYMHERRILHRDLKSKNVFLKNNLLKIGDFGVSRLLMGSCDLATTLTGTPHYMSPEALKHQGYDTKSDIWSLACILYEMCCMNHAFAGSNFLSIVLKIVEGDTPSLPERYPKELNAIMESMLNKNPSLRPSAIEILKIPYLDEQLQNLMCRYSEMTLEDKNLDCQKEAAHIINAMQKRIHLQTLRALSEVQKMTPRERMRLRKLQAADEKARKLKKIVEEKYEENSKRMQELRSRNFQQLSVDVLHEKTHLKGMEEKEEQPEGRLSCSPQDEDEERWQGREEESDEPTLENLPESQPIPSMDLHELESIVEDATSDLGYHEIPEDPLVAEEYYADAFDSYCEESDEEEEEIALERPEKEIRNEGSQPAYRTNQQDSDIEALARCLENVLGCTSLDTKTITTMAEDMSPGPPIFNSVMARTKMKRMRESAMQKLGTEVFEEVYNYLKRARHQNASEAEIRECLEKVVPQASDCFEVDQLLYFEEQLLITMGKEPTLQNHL
T2 sequence (Q8WTQ7 whole entry): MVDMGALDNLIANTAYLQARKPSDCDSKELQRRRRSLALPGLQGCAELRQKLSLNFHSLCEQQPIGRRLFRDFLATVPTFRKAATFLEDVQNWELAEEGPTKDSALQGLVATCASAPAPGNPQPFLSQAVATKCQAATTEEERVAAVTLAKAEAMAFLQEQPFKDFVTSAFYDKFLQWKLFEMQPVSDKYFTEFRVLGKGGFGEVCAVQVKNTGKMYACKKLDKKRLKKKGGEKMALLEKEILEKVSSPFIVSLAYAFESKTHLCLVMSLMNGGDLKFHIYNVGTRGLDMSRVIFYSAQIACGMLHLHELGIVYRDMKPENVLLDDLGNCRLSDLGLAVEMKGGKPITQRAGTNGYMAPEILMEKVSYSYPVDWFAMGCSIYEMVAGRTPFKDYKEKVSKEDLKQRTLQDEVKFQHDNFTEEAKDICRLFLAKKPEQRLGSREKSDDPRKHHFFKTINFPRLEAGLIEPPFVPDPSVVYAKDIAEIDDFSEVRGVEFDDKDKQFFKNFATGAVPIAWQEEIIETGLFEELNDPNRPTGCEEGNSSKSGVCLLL
T4 sequence (P42336 whole entry M1043I): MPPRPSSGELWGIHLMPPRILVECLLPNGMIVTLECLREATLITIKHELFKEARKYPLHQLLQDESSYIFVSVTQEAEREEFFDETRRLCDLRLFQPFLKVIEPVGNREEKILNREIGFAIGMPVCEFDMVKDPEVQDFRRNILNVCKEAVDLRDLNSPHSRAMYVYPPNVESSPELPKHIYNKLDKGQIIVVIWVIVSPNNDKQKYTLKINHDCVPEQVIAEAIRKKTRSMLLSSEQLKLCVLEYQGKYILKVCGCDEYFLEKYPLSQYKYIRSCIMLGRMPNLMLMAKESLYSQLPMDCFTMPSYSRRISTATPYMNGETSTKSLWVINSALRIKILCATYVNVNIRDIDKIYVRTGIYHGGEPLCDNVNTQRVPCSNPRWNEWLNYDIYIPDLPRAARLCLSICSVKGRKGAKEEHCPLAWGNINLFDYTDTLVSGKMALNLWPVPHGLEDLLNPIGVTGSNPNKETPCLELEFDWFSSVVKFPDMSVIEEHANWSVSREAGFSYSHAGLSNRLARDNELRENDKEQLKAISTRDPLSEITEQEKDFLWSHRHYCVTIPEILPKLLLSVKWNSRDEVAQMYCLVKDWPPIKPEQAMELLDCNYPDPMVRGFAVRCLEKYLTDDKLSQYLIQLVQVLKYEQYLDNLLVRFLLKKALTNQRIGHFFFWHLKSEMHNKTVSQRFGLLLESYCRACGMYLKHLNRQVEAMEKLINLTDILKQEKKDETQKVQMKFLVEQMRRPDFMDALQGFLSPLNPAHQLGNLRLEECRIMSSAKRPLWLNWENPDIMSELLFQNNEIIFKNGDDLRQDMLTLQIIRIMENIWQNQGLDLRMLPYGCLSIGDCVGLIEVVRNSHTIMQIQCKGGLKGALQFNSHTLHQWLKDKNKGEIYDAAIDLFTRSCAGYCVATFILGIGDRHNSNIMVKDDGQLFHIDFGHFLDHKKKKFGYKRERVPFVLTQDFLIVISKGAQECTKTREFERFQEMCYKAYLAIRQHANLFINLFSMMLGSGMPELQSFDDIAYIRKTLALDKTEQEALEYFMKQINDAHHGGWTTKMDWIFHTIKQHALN

Consider `CCc1ccc2c(c1)C1(NN=C(c3cccc4ccccc34)S1)C(=O)N2` (centres unmarked) [OGM1, 5-ethyl-5′-naphthalen-1-ylspiro[1H-indole-3,2′-3H-1,3,4-thiadiazole]-2-one], for which the EC50 at GPR68/OGR1 (Table 5, read-out: GPR68) was found to be 160 nM; at GPR68/OGR1 (setting [3]) it was 306 nM. Besides, the figures for the remaining binding at 10 µM on GRK7, at NEK11 and on PIK3CA(M1043I) were 73%, 88% and 59%, respectively. The Antagonism on CCK2 (10 uM) came out at 14.9. In addition, the Agonism at CCK2 (12.5 uM) is recorded as −0.4. Further, the “CS-induced TNF-α mRNA expression” value in experiment [1] is recorded as “blocked”. In addition, the “CS-induced VCAM-1 expression” value in experiment [1] is reported as “blocked”. In addition, the “Rho activation by 18% cyclic stretch” value in experiment [1] is recorded as “abolished”. Besides, the “reversibility of GPR68 inhibition” value at GPR68 is listed as “reversible inhibitor of GPR68”.
On to `CCc1ccc2c(c1)C1(NN=C(c3ccccc3)S1)C(=O)N2` (centres unmarked) [OGM2], for which the EC50 at GPR68/OGR1 (Table 5, read-out: GPR68) was 710 nM. The EC50 at GPR68/OGR1 (setting [3]) stood at 710 nM. Further, in experiment [1], the “CS-induced TNF-α mRNA expression” value is listed as “blocked”, the “CS-induced VCAM-1 expression” value is “blocked” and the “Rho activation by 18% cyclic stretch” value is “abolished”. The “expression of ATF4, CHAC1, HMOX1, TFRC, SLC7A11” value in experiment [2] was “induced key markers of ferroptosis”. Besides, the “Time till 50% max” value at GPR68 (recovery of GPR68 activity after washout, 10 μM OGM2 for 4 hours, pH 6.4 medium) is about 52 min. On GPR68, the “reversibility of GPR68 inhibition” value is “reversible and highly specific inhibitor of GPR68”. Moreover, the “reversibility of GPR68 inhibition” value on GPR68 (listed as OM8345) was “reversible inhibition of GPR68”.
